Experimental findings from BindingDB's records for doi:10.1016/0024-3205(89)90523-7 (Nida Addiction Research Center, 1989) are described below.

Usually pKi stands for the negative decadic logarithm of the Ki, by convention in mol/L.

The target in one assay is D(1A) dopamine receptor (Rattus norvegicus, UniProt P18901).
Assay [1] has as its target Sodium-dependent dopamine transporter (Rattus norvegicus, UniProt P23977).
Assay [2] deals with T1, Alpha-1A adrenergic receptor (Rattus norvegicus, UniProt P43140).
T1 sequence (P43140 whole entry): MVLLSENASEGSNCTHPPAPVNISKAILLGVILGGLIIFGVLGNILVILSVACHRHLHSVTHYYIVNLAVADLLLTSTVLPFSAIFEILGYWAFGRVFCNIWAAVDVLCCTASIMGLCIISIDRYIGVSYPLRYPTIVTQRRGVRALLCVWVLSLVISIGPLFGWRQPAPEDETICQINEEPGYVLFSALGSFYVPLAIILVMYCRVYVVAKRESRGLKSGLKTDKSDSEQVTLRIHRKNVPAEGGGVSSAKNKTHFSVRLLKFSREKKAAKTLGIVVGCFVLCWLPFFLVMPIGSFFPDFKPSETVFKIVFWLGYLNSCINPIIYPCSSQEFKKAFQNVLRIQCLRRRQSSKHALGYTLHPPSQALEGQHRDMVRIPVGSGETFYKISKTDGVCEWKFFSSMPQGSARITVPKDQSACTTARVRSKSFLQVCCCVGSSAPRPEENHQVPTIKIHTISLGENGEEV

In assay [3] the target is Norepinephrine transporter (Rattus norvegicus, UniProt Q9JIA2).
For assay [4], the target named is 5-hydroxytryptamine receptor 2A (Rattus norvegicus, UniProt P14842).
A further assay has as its target D(2) dopamine receptor (Rattus norvegicus, UniProt P61169).
For assay [5], the target named is T2, Muscarinic acetylcholine receptor M2 (Rattus norvegicus, UniProt P10980).
T2 sequence (P10980 whole entry): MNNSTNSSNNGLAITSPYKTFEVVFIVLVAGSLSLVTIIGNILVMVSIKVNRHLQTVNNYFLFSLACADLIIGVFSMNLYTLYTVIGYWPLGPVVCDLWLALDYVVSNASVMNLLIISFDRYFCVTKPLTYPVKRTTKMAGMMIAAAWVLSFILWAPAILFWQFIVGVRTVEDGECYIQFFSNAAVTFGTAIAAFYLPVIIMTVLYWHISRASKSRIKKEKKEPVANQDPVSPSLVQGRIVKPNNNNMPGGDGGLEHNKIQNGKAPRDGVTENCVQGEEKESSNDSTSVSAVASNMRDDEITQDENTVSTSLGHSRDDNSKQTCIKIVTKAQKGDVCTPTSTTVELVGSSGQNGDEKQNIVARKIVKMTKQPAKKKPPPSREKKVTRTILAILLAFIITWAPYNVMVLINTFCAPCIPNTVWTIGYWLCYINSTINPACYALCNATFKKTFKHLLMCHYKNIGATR

Each structure is given as a SMILES string. pKi: −log10 of the molar value. Several values for one entry are separate records, joined by “and”; a condition that tells them apart may be missing. Identical values can stand only once.

D(2) dopamine receptor, sequence (P61169 whole entry): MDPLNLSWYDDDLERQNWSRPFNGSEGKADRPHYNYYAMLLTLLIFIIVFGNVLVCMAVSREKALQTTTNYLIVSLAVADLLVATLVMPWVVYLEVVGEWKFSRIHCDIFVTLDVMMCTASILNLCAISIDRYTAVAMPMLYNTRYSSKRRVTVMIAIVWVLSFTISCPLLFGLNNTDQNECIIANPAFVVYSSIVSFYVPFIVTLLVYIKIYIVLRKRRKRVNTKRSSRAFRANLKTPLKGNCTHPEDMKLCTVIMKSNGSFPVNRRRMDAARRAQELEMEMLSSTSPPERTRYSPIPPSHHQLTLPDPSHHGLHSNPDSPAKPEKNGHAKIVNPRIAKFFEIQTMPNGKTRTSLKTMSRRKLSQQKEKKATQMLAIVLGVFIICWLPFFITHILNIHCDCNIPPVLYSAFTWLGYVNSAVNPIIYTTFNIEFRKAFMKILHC
D(1A) dopamine receptor, sequence (P18901 whole entry): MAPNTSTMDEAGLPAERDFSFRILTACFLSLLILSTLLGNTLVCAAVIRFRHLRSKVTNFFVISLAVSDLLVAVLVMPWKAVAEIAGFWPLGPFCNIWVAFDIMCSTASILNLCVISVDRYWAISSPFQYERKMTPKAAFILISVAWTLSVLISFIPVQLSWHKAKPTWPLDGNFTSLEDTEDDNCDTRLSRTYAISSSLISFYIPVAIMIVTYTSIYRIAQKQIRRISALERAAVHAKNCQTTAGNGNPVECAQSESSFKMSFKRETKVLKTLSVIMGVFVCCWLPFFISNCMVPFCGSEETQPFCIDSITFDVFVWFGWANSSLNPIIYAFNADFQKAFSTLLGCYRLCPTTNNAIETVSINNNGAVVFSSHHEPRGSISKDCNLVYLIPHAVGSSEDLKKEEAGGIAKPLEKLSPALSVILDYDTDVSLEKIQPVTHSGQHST
5-hydroxytryptamine receptor 2A, sequence (P14842 whole entry): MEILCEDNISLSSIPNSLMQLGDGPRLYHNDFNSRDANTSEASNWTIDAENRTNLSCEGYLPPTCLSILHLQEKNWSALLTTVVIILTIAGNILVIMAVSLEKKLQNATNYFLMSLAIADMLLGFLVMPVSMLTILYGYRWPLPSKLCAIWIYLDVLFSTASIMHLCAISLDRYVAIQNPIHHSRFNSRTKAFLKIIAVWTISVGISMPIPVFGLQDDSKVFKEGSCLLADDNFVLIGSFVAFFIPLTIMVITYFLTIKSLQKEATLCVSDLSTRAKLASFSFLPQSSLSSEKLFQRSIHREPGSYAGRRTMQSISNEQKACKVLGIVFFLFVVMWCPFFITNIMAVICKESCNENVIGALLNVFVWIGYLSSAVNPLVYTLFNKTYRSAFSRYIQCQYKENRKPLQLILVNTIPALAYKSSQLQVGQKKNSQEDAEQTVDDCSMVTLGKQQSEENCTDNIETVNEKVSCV
Sodium-dependent dopamine transporter, sequence (P23977 whole entry): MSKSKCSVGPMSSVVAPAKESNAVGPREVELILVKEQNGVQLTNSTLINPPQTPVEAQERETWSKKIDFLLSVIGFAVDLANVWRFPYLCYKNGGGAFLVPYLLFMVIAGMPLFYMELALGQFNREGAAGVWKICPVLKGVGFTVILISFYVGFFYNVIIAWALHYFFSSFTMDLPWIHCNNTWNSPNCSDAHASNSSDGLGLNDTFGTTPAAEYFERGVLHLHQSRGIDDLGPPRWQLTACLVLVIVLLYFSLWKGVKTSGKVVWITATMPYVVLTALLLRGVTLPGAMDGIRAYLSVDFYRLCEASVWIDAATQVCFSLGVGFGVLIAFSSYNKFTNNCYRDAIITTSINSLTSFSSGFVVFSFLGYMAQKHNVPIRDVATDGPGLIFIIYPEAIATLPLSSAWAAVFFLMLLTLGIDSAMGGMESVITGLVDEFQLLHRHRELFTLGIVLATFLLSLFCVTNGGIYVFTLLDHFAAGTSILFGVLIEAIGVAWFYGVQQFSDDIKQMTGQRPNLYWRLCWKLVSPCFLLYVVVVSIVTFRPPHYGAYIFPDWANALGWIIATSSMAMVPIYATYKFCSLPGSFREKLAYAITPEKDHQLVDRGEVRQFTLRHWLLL

Consider `CNc1cc(OC)c(C(=O)NCCN(C)Cc2ccc(I)cc2)cc1Cl` [CAS_130377], for which the negative-log Ki (pKi) on D(1A) dopamine receptor is 5.73; in assay [1], 6.68; in assay [2], 7.21; in assay [3], 5.57; in assay [4] it was 5.75; on D(2) dopamine receptor, 9.89 and 9.67. The pKi in assay [5] was 6.96.
